≈ marks a conversion by molar mass, not a printed value. Read-outs that look alike come from different tables or passages of the source.
Legend:
Type in all cases: cell-based, P. aeruginosa
[1] = system: PA-009, blaGES; assay: MIC / checkerboard with ATM; design: key to Susceptibility category: S: susceptible; I: intermediate; R: resistant
[2] = system: PA-035, blaGES; assay: MIC / checkerboard with ATM; design: key to Susceptibility category: S: susceptible; I: intermediate; R: resistant; details: for MIC: Pseudomonas aeruginosa
[3] = system: PA-002, blaIMP; assay: MIC / checkerboard with ATM; design: key to Susceptibility category: S: susceptible; I: intermediate; R: resistant; details: for MIC: Pseudomonas aeruginosa
[4] = system: PA-027, blaIMP; assay: MIC / checkerboard with ATM; design: key to Susceptibility category: S: susceptible; I: intermediate; R: resistant; details: for MIC: Pseudomonas aeruginosa
[5] = system: PA-029, blaIMP; assay: MIC / checkerboard with ATM; design: key to Susceptibility category: S: susceptible; I: intermediate; R: resistant; details: for MIC: Pseudomonas aeruginosa
[6] = system: PA-025, blaNDM; assay: MIC / checkerboard with ATM; design: key to Susceptibility category: S: susceptible; I: intermediate; R: resistant; details: PA-025
[7] = system: PA-031, blaNDM; assay: MIC / checkerboard with ATM; design: key to Susceptibility category: S: susceptible; I: intermediate; R: resistant; details: for MIC: Pseudomonas aeruginosa
[8] = system: PA-033, blaNDM; assay: MIC / checkerboard with ATM; design: key to Susceptibility category: S: susceptible; I: intermediate; R: resistant; details: for MIC: Pseudomonas aeruginosa
[9] = system: PA-034, blaNDM; assay: MIC / checkerboard with ATM; design: key to Susceptibility category: S: susceptible; I: intermediate; R: resistant; details: PA-034
[10] = system: PA-036, blaNDM; assay: MIC / checkerboard with ATM; design: key to Susceptibility category: S: susceptible; I: intermediate; R: resistant; details: PA-036
[11] = system: PA-041, blaNDM; assay: MIC / checkerboard with ATM; design: key to Susceptibility category: S: susceptible; I: intermediate; R: resistant; details: for MIC: Pseudomonas aeruginosa
[12] = system: ATM-Resistant CPPA (n = 15); assay: MIC distribution over clinical isolates; details: Pseudomonas aeruginosa

C[C@H]1[C@H](NC(=O)/C(=N\OC(C)(C)C(=O)O)c2csc(N)n2)C(=O)N1S(=O)(=O)O [ATM, aztreonam]
Susceptibility to ATM ([1]; PA-009, ATM alone): R (R (resistant, MIC ≥ 32 mg/L)) | Susceptibility category ([1]; PA-009, Table S2): R | MIC ([1]; Pseudomonas aeruginosa, read-out: MIC of ATM, PA-009, ATM alone (5 at 0 mg/L)): 32 µg/mL | Susceptibility to ATM ([2]; PA-035, ATM alone): S (S (sensitive, MIC ≤ 8 mg/L)) | Susceptibility category ([2]; PA-035, Table S2): S | MIC ([2]; PA-035, Table S2, read-out: MIC value): 8 µg/mL | MIC ([2]; read-out: MIC of ATM, PA-035, ATM alone (5 at 0 mg/L)): 8 µg/mL | Susceptibility to ATM ([3]; PA-002, ATM alone): R (R (resistant, MIC ≥ 32 mg/L)) | Susceptibility category ([3]; PA-002, Table S2): R | MIC ([3]; PA-002, Table S2, read-out: MIC value): 32 µg/mL | MIC ([3]; read-out: MIC of ATM, PA-002, ATM alone (5 at 0 mg/L)): 32 µg/mL | Susceptibility to ATM ([4]; PA-027, ATM alone): R (R (resistant, MIC ≥ 32 mg/L)) | Susceptibility category ([4]; PA-027, Table S2): R | MIC ([4]; PA-027, Table S2, read-out: MIC value): 32 µg/mL | MIC ([4]; read-out: MIC of ATM, PA-027, ATM alone (5 at 0 mg/L)): 32 µg/mL | Susceptibility to ATM ([5]; PA-029, ATM alone): R (R (resistant, MIC ≥ 32 mg/L)) | Susceptibility category ([5]; PA-029, Table S2): R | MIC ([5]; PA-029, Table S2, read-out: MIC value): 32 µg/mL | MIC ([5]; read-out: MIC of ATM, PA-029, ATM alone (5 at 0 mg/L)): 32 µg/mL | Susceptibility to ATM ([6]; ATM alone): I (I (intermediate, MIC = 16 mg/L)) | Susceptibility category ([6]; Table S2): I | Susceptibility to ATM ([7]; PA-031, ATM alone): S (S (sensitive, MIC ≤ 8 mg/L)) | Susceptibility category ([7]; PA-031, Table S2): S | MIC ([7]; PA-031, Table S2, read-out: MIC value): 8 µg/mL | MIC ([7]; read-out: MIC of ATM, PA-031, ATM alone (5 at 0 mg/L)): 4 µg/mL | Susceptibility to ATM ([8]; PA-033, ATM alone): S (S (sensitive, MIC ≤ 8 mg/L)) | Susceptibility category ([8]; PA-033, Table S2): S | MIC ([8]; PA-033, Table S2, read-out: MIC value): 2 µg/mL | MIC ([8]; read-out: MIC of ATM, PA-033, ATM alone (5 at 0 mg/L)): 2 µg/mL | Susceptibility to ATM ([9]; ATM alone): I (I (intermediate, MIC = 16 mg/L)) | Susceptibility category ([9]; Table S2): I | Susceptibility to ATM ([10]; ATM alone): I (I (intermediate, MIC = 16 mg/L)) | Susceptibility category ([10]; Table S2): I | Susceptibility to ATM ([11]; PA-041, ATM alone): S (S (sensitive, MIC ≤ 8 mg/L)) | Susceptibility category ([11]; PA-041, Table S2): S | MIC ([11]; PA-041, Table S2, read-out: MIC value): 4 µg/mL | MIC ([11]; read-out: MIC of ATM, PA-041, ATM alone (5 at 0 mg/L)): 4 µg/mL | MIC50 ([12]; read-out: MIC50 of ATM, 5 at 0 mg/L): 16 µg/mL (≈ 36.7 µM) | MIC90 ([12]; read-out: MIC90 of ATM, 5 at 0 mg/L): 64 µg/mL (≈ 147 µM)

Reference: PMC11672637, “7-O-Carboxylic Acid-Substituted 3-O-Alkyl Difluoroquercetin; An Aztreonam-Potentiating Agent Against Carbapenemase-Producing Pseudomonas aeruginosa Through Simultaneous Inhibition of Metallo-β-Lactamase and Efflux Pump” (Antibiotics, 2024)
